Patent publication US20130012709A1, “NOVEL INHIBITORS OF STEAROYL-CoA-DESATURASE-1 AND THEIR USES” (CENTRE NATIONAL DE LA RECHERCHE SCIENTIFIQUE, priority 2009, published 2013)
Where two headings read alike, the source gives them in different places.

How the values were obtained:
C4-2 cells [1] = assay: Proliferation by BrDU incorporation
Description: (§2) LNCaP and C4-2 cells grown on coverslips were incubated for 4 hours with BrdU (100 μM final) at 24 hours and 48 hours following SCD-1 knock-down. Cells were then fixed and permeabilized with cold methanol for 10 min at −20° C. After 3 washes with PBS, DNA was denaturated with 4NHCL for 10 min at RT, and cells were incubated with blocking buffer (PBS-1% BSA). BrDU was then detected with anti-BrDU monoclonal antibody 1:50 (Dako, Carpinteria, Calif.) for 1 hour at 37° C. After 3 washes with PBS, cells were incubated with an FITC-conjugated anti-mouse secondary antibody 1:150 (Jackson Immunoresearch) for 30 min at 37° C., and slides were mounted in mowiol.

LNCaP cells [2] = assay: Flow cytometry analysis of cell cycle; format: cell-based, human; conditions: 25 μM, 48 h; untreated cells 20
Description: (§1) Cells were then rinsed in PBS, pelleted at 400 g for 5 min and maintained on ice for 20 min before resuspension in a […] propidium iodide (Sigma) solution. Cells were kept overnight at 4° C. and the percentages of cells in G1, S and G2-M phases of the cell cycle were measured with a Coulter Epics XL™ flow cytometer (Becton Dickinson) using 488-nm laser excitation. For apoptosis experiment, MEFs were treated with the tested compound at 25 μM for 24 h, then rinced in PBS, pelleted at 400 g for 5 min and stained with annexinV-FITC (Roche Diagnostics, Meylan, France) for 15 min at 4° C. The percentage of annexin positive cells was immediately analysed using 488-nm laser excitation.

C4-2 cells [3] = assay: Flow cytometry analysis of cell cycle; format: cell-based, human; conditions: 25 μM, 48 h; untreated cells 22
Description: as §1

C4-2 cells [4] = assay: MTT assay (cell viability); conditions: 48 h
Description: (§3) After 48 h, medium was removed and 250 μl of a 5 mg/ml MTT (Sigma, St Louis, Mo., USA) solution in PBS was added to each well. After 4 h incubation at 37° C., the MTT solution was removed, 200 μl of DMSO (Sigma) was added and cells were incubated for 5 min. Two hundred microliters of each samples was distributed in 96-well plates for an optical density reading at 540 nm.

LNCaP cells [5] = assay: Proliferation by BrDU incorporation; format: cell-based, human
Description: as §2

SCD1 mRNA and protein = assay: SCD-1 knock-down by siRNA, mRNA and protein expression; format: cell-based, human
Description: For small interfering (si) RNA experiments, transfection of LNCaP or C4-2 cells was carried out with pre-designed ON-TARGET plus siRNA oligonucleotides control or targeting the human SCD-1 sequence GCACAUCAACUUCACCACA (Dharmacon, Lafayette, Co, USA).
Nucleofaction of cells with 2.5 μg siRNA were performed on 2×10^6 cells using Amaxa nucleofactor R kit (Lonza, Cologne, Germany). Twenty-four hours and 48 hours after transfection, cells were processed for cell proliferation by BrdU staining and harvested for RNA and protein analysis.
RNA was extracted with the use of TRI-Reagent (Euromedex, Mundolsheim, France) according to the manufacturers' recommendations. Reverse transcription of total RNA was performed at 37° C. using the M-MLV reverse transcriptase (Invitrogen) and random hexanucleotide primers (Promega, Madison, Wis.), followed by a 15 min inactivation at 70° C. Quantitative PCR was conducted using the primers specific for human SCD1 and SYBR Green Light Cycler Master Mix (Eurofins MWG Operon, Roissy CDG). […] Values are expressed as the relative mRNA level of specific gene expression as obtained using the formula 2^−(ΔCt).

C4-2 cells [6] = system: C4-2 cells
Description: as §3

For `COc1ccc(Br)c(C(=O)N2CCN(S(=O)(=O)c3ccc(F)cc3)CC2)c1` [Example 2, 1-[(2-bromo-5-methoxybenzoyl)]-4-[(4-fluorophenyl)sulfonyl]piperazine], the inhibition at 25 µM (C4-2 cells [1]; Homo sapiens, C4-2, 48 h, read-out: % Inhibition of proliferation at 25 μM (BrDU) on C4-2) was 37.2 ± 8.8%, the “% LNCaP cells in phase S at 25 μM” value (LNCaP cells [2]) was 5% and the “% C4-2 cells in phase S at 25 μM” value (C4-2 cells [3]) was 11.8%. The “Viable C4-2 cells at 25 μM (% of control)” value (C4-2 cells [4]) was 49 % of control and the melting point was 202 °C.
With “siRNA: pre-designed ON-TARGET plus siRNA oligonucleotides targeting the human SCD-1 sequence GCACAUCAACUUCACCACA (Dharmacon) (chemistry not given here) [reference compound]” the “proliferation after SCD-1 knock-down” value (C4-2 cells [1]; C4-2, siRNA) was “marked decrease”, the “proliferation after SCD-1 knock-down” value (LNCaP cells [5]; LNCaP, siRNA) was “marked decrease” and the “SCD1 mRNA and protein expressions” value (SCD1 mRNA and protein) was “blocked”.
For `COc1ccc(Br)c(C(=O)N2CCN(S(=O)(=O)c3ccccc3C(F)(F)F)CC2)c1` [Example 8, 1N-[(2-bromo-5-methoxybenzoyl)]-4N-[(2-trifluoromethylphenyl)sulfonyl]piperazine], the “% Inhibition of proliferation at 25 μM (BrDU) on C4-2” value (C4-2 cells [1]; 25 μM, 48 h of treatment) was 84.4 ± 8.5%, the “% Inhibition of proliferation at 25 μM (BrDU) on LNCaP” value (LNCaP cells [5]; 25 μM, 48 h of treatment) was 40.1% and the “Viable C4-2 cells at 25 μM (% of control)” value (C4-2 cells [6]) was 73 % of control.
